Laboratory results published in patent US20260033466A1, “METHOD AND ANIMAL MODEL FOR INDUCING BCC TUMORS” (FELDAN BIO INC., priority 2022, published 2026).

Assays:
BCC tumors = assay: Anti-BCC treatment of induced BCC mice (tamoxifen/doxycycline and UV-B); format: in vivo, mouse; conditions: begun 37-43 weeks post-induction
[1] = test system: GFP (indicative of Ptch1 and p53 shRNA expression); assay: Immunofluorescence of GFP in skin of BCC mice after induction, no UV-B; format: in vivo, mouse; conditions: absence of UV, fluorescence microscopy of skin sections, FIG. 4
Description: Positive GFP fluorescence is indicative of Ptch1 and p53 shRNA expression. […] Positive GFP fluorescence is indicative of Ptch1 and p53 shRNA expression.
For histological staining by immunofluorescence, sections were incubated 5 minutes in room temperature PBS to remove the OCT compound and then drained as much as possible. Slides were then blocked in BSA 3% and stained with anti-GFP antibody (ab6556 Abcam) or anti-Ptch1 (ThermoFisher PA5-87508) or anti-CK14 (BioLegend™ #906004) O/N at 4° C. Sections were then washed thrice (5 minutes each) with PBST and incubated with fluorophore-conjugated antibodies. Following washes (3×5 minutes), 100 μL per slide of ProLong™ Glass NucBlue™ (Invitrogen™) were applied and a coverslip. Slides were incubated overnight in the dark prior to imaging. Slides were imaged within 1-4 days after mounting and left in the dark until that time.
Next, shRNA expression was assessed in the skin of mice, either untreated, or after induction with either tamoxifen alone, doxycycline alone, or tamoxifen/doxycycline in the absence of UV.

mouse Ptch1 = assay: shRNA knockdown efficiency reporter assay (Yuan et al. 2014); format: cell-based; conditions: Ptch1 mRNA expression normalized to shRen713 (positive control); FIG. 2
Description: Knockdown efficiency was calculated by Ptch1 mRNA expression normalized to shRen713 ([…]).
Knockdown efficiency was calculated by Ptch1 mRNA expression normalized to shRen713 ([…]), a reporter shRNA targeting Renilla Luciferase 713.

CO[C@H]1C[C@@H]2CC[C@@H](C)[C@@](O)(O2)C(=O)C(=O)N2CCCC[C@H]2C(=O)O[C@H]([C@H](C)C[C@@H]2CC[C@@H](OCCO)[C@H](OC)C2)CC(=O)[C@H](C)/C=C(\C)[C@@H](O)[C@@H](OC)C(=O)[C@H](C)C[C@H](C)/C=C/C=C/C=C/1C [everolimus]
tumor appearance (scabbing/crusting) (BCC tumors; i.p. 3 mg/kg, after 7-12 days of treatment, FIG. 13): visible signs of scabbing/crusting of the tumors

CC/C(=C(\c1ccccc1)c1ccc(OCCN(C)C)cc1)c1ccccc1 [tamoxifen]
GFP expression in skin (shRNAs targeting Ptch1 and p53) [1]: no expression of GFP

CS(=O)(=O)c1ccc(C(=O)Nc2ccc(Cl)c(-c3ccccn3)c2)c(Cl)c1 [vismodegib]
tumor appearance (scabbing/crusting) (BCC tumors; oral daily via gastric gavage 5 mg/kg, after 18-25 days of treatment, FIG. 12): visible signs of scabbing/crusting of the tumors

B1: Ptch1.2559: shRNA targeting mouse Ptch1, nucleobases 2776-2796 of SEQ ID NO: 12; selected for the BCC model (nucleic acid)
guide: TCATGCCAAACAATTATAAAATAGTGAAGCCACAGATGTATTTTATAATTGTTTGGCATGA
knockdown efficiency (mouse Ptch1): 101.24%
